For seven compounds, mutagenic call results are on record in PubChem BioAssay AID1259407 (Chemical Carcinogenesis Research Information System (CCRIS), 2018).

Activity calls are given as the source filed them. How the calls were made is not given here.

This data set relates to CCRIS mutagenicity, Ames/micronucleus/aberration tests. Nature of the data set: CCRIS mutagenicity studies.
[1] abbreviates: Test System: AMES SALMONELLA TYPHIMURIUM, Strain/Indicator: TA98, Metabolic Activation: NONE, Method: PREINCUBATION

As to `Nc1ccc(C=O)cc1`, the mutagenic call reads like this: under setting [1], “inactive; negative”; (Test System: AMES SALMONELLA TYPHIMURIUM, Strain/Indicator: TA98, Metabolic Activation: RAT LIVER S-9, PHENOBARBITAL AND BETA-NAPHTHOFLAVONE (30%), Method: PREINCUBATION) “inactive; negative”; (Test System: AMES SALMONELLA TYPHIMURIUM, Strain/Indicator: TA98, Metabolic Activation: RAT LIVER S-9, PHENOBARBITAL AND BETA-NAPHTHOFLAVONE, Method: PREINCUBATION) “inactive; negative”; (Test System: AMES SALMONELLA TYPHIMURIUM, Strain/Indicator: TA100, Metabolic Activation: NONE, Method: PREINCUBATION) “inactive; negative”; (Test System: AMES SALMONELLA TYPHIMURIUM, Strain/Indicator: TA100, Metabolic Activation: RAT LIVER S-9, PHENOBARBITAL AND BETA-NAPHTHOFLAVONE (30%), Method: PREINCUBATION) “inactive; negative”; (Test System: AMES SALMONELLA TYPHIMURIUM, Strain/Indicator: TA100, Metabolic Activation: RAT LIVER S-9, PHENOBARBITAL AND BETA-NAPHTHOFLAVONE, Method: PREINCUBATION) “inactive; negative”. Further, the mutagenic call by setting is: (Test System: AMES SALMONELLA TYPHIMURIUM, Strain/Indicator: TA1535, Metabolic Activation: NONE, Method: PREINCUBATION) “inactive; negative”; (Test System: AMES SALMONELLA TYPHIMURIUM, Strain/Indicator: TA1535, Metabolic Activation: RAT LIVER S-9, PHENOBARBITAL AND BETA-NAPHTHOFLAVONE (30%), Method: PREINCUBATION) “inactive; negative”; (Test System: AMES SALMONELLA TYPHIMURIUM, Strain/Indicator: TA1535, Metabolic Activation: RAT LIVER S-9, PHENOBARBITAL AND BETA-NAPHTHOFLAVONE, Method: PREINCUBATION) “inactive; negative”; (Test System: AMES SALMONELLA TYPHIMURIUM, Strain/Indicator: TA1537, Metabolic Activation: NONE, Method: PREINCUBATION) “inactive; negative”; (Test System: AMES SALMONELLA TYPHIMURIUM, Strain/Indicator: TA1537, Metabolic Activation: RAT LIVER S-9, PHENOBARBITAL AND BETA-NAPHTHOFLAVONE (30%), Method: PREINCUBATION) “inactive; negative”; (Test System: AMES SALMONELLA TYPHIMURIUM, Strain/Indicator: TA1537, Metabolic Activation: RAT LIVER S-9, PHENOBARBITAL AND BETA-NAPHTHOFLAVONE, Method: PREINCUBATION) “inactive; negative”. Moreover, the mutagenic call is, setting by setting: (Test System: E.COLI, Strain/Indicator: WP2UVRA, Metabolic Activation: NONE, Method: PREINCUBATION) “inactive; negative”; (Test System: E.COLI, Strain/Indicator: WP2UVRA, Metabolic Activation: RAT LIVER S-9, PHENOBARBITAL AND BETA-NAPHTHOFLAVONE (30%), Method: PREINCUBATION) “inactive; negative”; (Test System: E.COLI, Strain/Indicator: WP2UVRA, Metabolic Activation: RAT LIVER S-9, PHENOBARBITAL AND BETA-NAPHTHOFLAVONE, Method: PREINCUBATION) “inactive; negative”.
As to `C/C=C1/C[C@@H](C)[C@](O)(CO)C(=O)OCC2=CCN3CC[C@@H](OC1=O)[C@@H]23`, the mutagenic call by setting is: (Test System: AMES SALMONELLA TYPHIMURIUM, Strain/Indicator: TA97A, Metabolic Activation: RAT, LIVER, S-9, SODIUM PHENOBARBITAL AND BETA-NAPHTHOFLAVONE, Method: PREINCUBATION) “inactive; negative”; (Test System: AMES SALMONELLA TYPHIMURIUM, Strain/Indicator: TA97A, Metabolic Activation: RAT, LIVER, S-9, SODIUM PHENOBARBITAL AND BETA-NAPHTHOFLAVONE, Method: STANDARD PLATE) “inactive; negative”; (Test System: AMES SALMONELLA TYPHIMURIUM, Strain/Indicator: TA98, Metabolic Activation: RAT, LIVER, S-9, SODIUM PHENOBARBITAL AND BETA-NAPHTHOFLAVONE, Method: PREINCUBATION) “inactive; negative”; (Test System: AMES SALMONELLA TYPHIMURIUM, Strain/Indicator: TA98, Metabolic Activation: RAT, LIVER, S-9, SODIUM PHENOBARBITAL AND BETA-NAPHTHOFLAVONE, Method: STANDARD PLATE) “inactive; negative”; (Test System: AMES SALMONELLA TYPHIMURIUM, Strain/Indicator: TA100, Metabolic Activation: RAT, LIVER, S-9, SODIUM PHENOBARBITAL AND BETA-NAPHTHOFLAVONE, Method: PREINCUBATION) “inactive; negative”; (Test System: AMES SALMONELLA TYPHIMURIUM, Strain/Indicator: TA100, Metabolic Activation: RAT, LIVER, S-9, SODIUM PHENOBARBITAL AND BETA-NAPHTHOFLAVONE, Method: STANDARD PLATE) “inactive; negative”. Also, the mutagenic call (Test System: AMES SALMONELLA TYPHIMURIUM, Strain/Indicator: TA1535, Metabolic Activation: RAT, LIVER, S-9, SODIUM PHENOBARBITAL AND BETA-NAPHTHOFLAVONE, Method: PREINCUBATION) is “inactive; negative”; the mutagenic call (Test System: AMES SALMONELLA TYPHIMURIUM, Strain/Indicator: TA1535, Metabolic Activation: RAT, LIVER, S-9, SODIUM PHENOBARBITAL AND BETA-NAPHTHOFLAVONE, Method: STANDARD PLATE) is “inactive; negative”; the mutagenic call (Test System: AMES SALMONELLA TYPHIMURIUM, Strain/Indicator: TA1538, Metabolic Activation: RAT, LIVER, S-9, SODIUM PHENOBARBITAL AND BETA-NAPHTHOFLAVONE, Method: PREINCUBATION) is “inactive; negative”; the mutagenic call (Test System: AMES SALMONELLA TYPHIMURIUM, Strain/Indicator: TA1538, Metabolic Activation: RAT, LIVER, S-9, SODIUM PHENOBARBITAL AND BETA-NAPHTHOFLAVONE, Method: STANDARD PLATE) is “inactive; negative”.
In the case of `FC(F)(F)CC(F)(F)F`, the mutagenic call by setting is: (Test System: AMES SALMONELLA TYPHIMURIUM, Strain/Indicator: TA97, Metabolic Activation: NONE, Method: CLOSED GLASS VESSEL) “inactive; negative”; (Test System: AMES SALMONELLA TYPHIMURIUM, Strain/Indicator: TA97, Metabolic Activation: RAT LIVER S-9, AROCLOR 1254, Method: CLOSED GLASS VESSEL) “inactive; negative”; (Test System: AMES SALMONELLA TYPHIMURIUM, Strain/Indicator: TA98, Metabolic Activation: NONE, Method: CLOSED GLASS VESSEL) “inactive; negative”; (Test System: AMES SALMONELLA TYPHIMURIUM, Strain/Indicator: TA98, Metabolic Activation: RAT LIVER S-9, AROCLOR 1254, Method: CLOSED GLASS VESSEL) “inactive; negative”; (Test System: AMES SALMONELLA TYPHIMURIUM, Strain/Indicator: TA100, Metabolic Activation: NONE, Method: CLOSED GLASS VESSEL) “inactive; negative”; (Test System: AMES SALMONELLA TYPHIMURIUM, Strain/Indicator: TA100, Metabolic Activation: RAT LIVER S-9, AROCLOR 1254, Method: CLOSED GLASS VESSEL) “inactive; negative”. The mutagenic call is “inactive; negative” (Test System: AMES SALMONELLA TYPHIMURIUM, Strain/Indicator: TA1535, Metabolic Activation: NONE, Method: CLOSED GLASS VESSEL); “inactive; negative” (Test System: AMES SALMONELLA TYPHIMURIUM, Strain/Indicator: TA1535, Metabolic Activation: RAT LIVER S-9, AROCLOR 1254, Method: CLOSED GLASS VESSEL); “inactive; negative” (Test System: ESCHERICHIA COLI, Strain/Indicator: WP2 UVR A, Metabolic Activation: NONE, Method: CLOSED GLASS VESSEL); “inactive; negative” (Test System: ESCHERICHIA COLI, Strain/Indicator: WP2 UVR A, Metabolic Activation: RAT LIVER S-9, AROCLOR 1254, Method: CLOSED GLASS VESSEL).
Regarding `O=[N+]([O-])c1ccc2c(c1)Cc1cc(O)ccc1-2`, the mutagenic call under setting [1] is “active; positive” and the mutagenic call (Test System: AMES SALMONELLA TYPHIMURIUM, Strain/Indicator: TA98, Metabolic Activation: S-9, Method: PREINCUBATION) is “active; positive”.
For the compound `O=S(=O)(O)Oc1cccc2c1cc1ccc3cccc4ccc2c1c34`, the mutagenic call under setting [1] was “inactive; negative” and the mutagenic call (Test System: AMES SALMONELLA TYPHIMURIUM, Strain/Indicator: TA98, Metabolic Activation: RAT, LUNG, S-9, Method: PREINCUBATION) was “inactive; negative”.
For the compound `CCCCN[N+](=O)[O-]`, the mutagenic call (Test System: E. COLI, Strain/Indicator: WP2 (HCR-), Metabolic Activation: NONE) is “active; positive”.
`O=[N+]([O-])c1ccc2c3c4c(cccc4c4ccccc4c13)C1OC21` (stereo unspecified): the mutagenic call was “inactive; negative” (Test System: AMES SALMONELLA TYPHIMURIUM, Strain/Indicator: TA98(1,8-DNP6), Metabolic Activation: NONE, Method: STANDARD PLATE); “inactive; negative” (Test System: AMES SALMONELLA TYPHIMURIUM, Strain/Indicator: TA98(1,8-DNP6), Metabolic Activation: RAT, LIVER, S-9, AROCLOR 1254, Method: STANDARD PLATE); “inactive; negative” (Test System: AMES SALMONELLA TYPHIMURIUM, Strain/Indicator: TA98(NR), Metabolic Activation: NONE, Method: STANDARD PLATE); “inactive; negative” (Test System: AMES SALMONELLA TYPHIMURIUM, Strain/Indicator: TA98(NR), Metabolic Activation: RAT, LIVER, S-9, AROCLOR 1254, Method: STANDARD PLATE); “active; positive” (Test System: AMES SALMONELLA TYPHIMURIUM, Strain/Indicator: TA98, Metabolic Activation: NONE, Method: STANDARD PLATE); “active; positive” (Test System: AMES SALMONELLA TYPHIMURIUM, Strain/Indicator: TA98, Metabolic Activation: RAT, LIVER, S-9, AROCLOR 1254, Method: STANDARD PLATE).
